# Measured values published in ChEMBL document CHEMBL1136506, “Solid-phase synthesis of cyclic RGD-furanoid sugar amino acid peptides as integrin inhibitors” (Bioorg Med Chem Lett, 2003).
# Numbered stars: 1 amine (or outer) side, 2 acyl side, 3 side chain; on linkers, the order of the positions; unused ones are H or OH. Square brackets hold non-standard residues; d marks the D form. Peptide text beside a SMILES is read from it. X1 = O=C(C[C@@H]1O[C@H](CN[*:1])[C@@H](O)[C@H]1O)[*:2]
# What was measured:
# Integrin alpha-V/beta-3 [1] = biological target: T1, Integrin alpha-V/beta-3 (Homo sapiens, UniProt P05106+P06756); test: Displacement of [125I]-echistatin from alphaV-beta3 integrin of human skin fibroblasts at 1 mM (Inactive); format: protein-complex assay
# [2] = biological target: T2, Integrin alpha-IIb/beta-3 (Homo sapiens, UniProt P05106+P08514); test: Displacement of [125I]echistatin from alphaIIb-beta3 integrin of human platelets at 1 mM (Inactive)
# Integrin alpha-V/beta-3 [3] = biological target: T1, Integrin alpha-V/beta-3; test: Displacement of [125I]echistatin from alphaV-beta3 integrin of human skin fibroblasts; format: protein-complex assay
# [4] = biological target: T2, Integrin alpha-IIb/beta-3; test: Displacement of [125I]echistatin from alphaIIb-beta3 integrin of human platelets
# T2 sequence (P05106 27-788 limits assumed): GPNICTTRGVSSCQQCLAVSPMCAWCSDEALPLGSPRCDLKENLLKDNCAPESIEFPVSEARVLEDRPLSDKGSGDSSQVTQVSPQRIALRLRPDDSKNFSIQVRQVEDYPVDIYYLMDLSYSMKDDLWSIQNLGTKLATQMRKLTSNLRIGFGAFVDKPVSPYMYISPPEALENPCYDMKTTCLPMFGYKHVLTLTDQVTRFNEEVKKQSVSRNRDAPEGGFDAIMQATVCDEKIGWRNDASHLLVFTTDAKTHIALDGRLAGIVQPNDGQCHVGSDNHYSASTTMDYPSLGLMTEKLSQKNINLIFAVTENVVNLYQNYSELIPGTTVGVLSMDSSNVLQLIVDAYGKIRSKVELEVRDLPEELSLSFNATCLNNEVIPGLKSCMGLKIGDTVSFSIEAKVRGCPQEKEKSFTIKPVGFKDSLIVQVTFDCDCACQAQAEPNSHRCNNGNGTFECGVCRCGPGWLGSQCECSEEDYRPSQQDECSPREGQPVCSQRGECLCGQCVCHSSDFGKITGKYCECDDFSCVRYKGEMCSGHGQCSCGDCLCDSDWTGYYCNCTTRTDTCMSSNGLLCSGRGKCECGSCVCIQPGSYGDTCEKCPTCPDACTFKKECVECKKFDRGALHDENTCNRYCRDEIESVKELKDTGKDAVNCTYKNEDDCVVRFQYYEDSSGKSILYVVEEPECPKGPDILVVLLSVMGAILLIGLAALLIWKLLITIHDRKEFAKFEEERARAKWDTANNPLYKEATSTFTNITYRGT
# T2 sequence (P08514 32-887 limits assumed): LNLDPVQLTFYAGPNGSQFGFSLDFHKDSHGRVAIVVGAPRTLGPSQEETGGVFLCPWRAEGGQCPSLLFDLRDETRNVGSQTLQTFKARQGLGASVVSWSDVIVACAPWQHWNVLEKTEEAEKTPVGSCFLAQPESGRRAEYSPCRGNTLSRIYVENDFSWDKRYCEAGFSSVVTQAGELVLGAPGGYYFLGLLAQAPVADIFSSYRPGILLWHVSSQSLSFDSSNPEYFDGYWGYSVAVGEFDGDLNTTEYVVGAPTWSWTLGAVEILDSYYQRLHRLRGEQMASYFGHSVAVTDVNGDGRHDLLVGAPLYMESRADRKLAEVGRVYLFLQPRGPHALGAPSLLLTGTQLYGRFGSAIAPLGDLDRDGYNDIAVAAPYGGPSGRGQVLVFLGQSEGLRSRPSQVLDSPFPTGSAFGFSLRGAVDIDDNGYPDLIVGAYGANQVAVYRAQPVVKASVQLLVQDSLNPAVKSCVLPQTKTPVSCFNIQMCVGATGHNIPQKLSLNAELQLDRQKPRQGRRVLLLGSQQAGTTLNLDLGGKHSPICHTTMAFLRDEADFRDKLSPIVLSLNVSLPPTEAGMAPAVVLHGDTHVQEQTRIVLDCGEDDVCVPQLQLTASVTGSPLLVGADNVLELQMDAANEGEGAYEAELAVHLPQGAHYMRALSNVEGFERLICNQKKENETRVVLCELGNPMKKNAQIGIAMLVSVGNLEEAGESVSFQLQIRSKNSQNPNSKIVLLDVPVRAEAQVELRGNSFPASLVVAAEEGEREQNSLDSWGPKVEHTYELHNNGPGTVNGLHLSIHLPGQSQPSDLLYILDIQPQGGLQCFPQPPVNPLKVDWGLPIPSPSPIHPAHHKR
# T2 sequence (P08514 891-1039 limits assumed): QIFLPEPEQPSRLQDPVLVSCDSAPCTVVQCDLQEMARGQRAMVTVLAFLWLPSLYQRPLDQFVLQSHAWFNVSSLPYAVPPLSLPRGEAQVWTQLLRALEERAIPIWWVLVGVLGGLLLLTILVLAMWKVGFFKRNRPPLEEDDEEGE
# T1 sequence (P05106 27-788 limits assumed): as the sequence (P05106 27-788 limits assumed) above
# T1 sequence (P06756 31-889 limits assumed): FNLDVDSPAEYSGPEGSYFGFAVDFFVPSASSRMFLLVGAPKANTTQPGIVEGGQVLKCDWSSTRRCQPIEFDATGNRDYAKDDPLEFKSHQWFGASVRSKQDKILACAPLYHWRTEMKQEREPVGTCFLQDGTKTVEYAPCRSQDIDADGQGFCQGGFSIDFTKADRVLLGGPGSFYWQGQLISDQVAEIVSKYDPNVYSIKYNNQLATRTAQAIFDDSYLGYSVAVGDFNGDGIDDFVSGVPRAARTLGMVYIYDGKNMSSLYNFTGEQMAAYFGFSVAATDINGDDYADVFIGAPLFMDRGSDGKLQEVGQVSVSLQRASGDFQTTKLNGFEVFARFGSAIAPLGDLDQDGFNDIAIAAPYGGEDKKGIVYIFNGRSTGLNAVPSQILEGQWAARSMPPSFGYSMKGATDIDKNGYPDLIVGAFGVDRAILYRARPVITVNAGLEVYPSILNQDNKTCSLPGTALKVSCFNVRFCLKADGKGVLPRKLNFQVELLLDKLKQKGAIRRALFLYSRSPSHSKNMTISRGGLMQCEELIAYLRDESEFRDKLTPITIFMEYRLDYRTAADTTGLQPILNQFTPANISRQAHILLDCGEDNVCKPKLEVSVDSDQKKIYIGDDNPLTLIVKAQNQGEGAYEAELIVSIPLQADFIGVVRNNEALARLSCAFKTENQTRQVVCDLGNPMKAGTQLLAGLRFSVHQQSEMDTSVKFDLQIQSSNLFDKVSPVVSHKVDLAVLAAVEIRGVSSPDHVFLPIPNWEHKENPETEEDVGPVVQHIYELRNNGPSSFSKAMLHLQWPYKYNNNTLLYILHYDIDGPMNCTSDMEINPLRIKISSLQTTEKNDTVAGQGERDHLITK
# T1 sequence (P06756 891-1048 limits assumed): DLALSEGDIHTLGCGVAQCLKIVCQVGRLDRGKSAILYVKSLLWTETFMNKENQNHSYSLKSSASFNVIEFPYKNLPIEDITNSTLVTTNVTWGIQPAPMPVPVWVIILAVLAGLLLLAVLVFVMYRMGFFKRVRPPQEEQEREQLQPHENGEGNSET
IC50 (Integrin alpha-V/beta-3 [1]),IC50 [2],IC50 (Integrin alpha-V/beta-3 [3]),IC50 [4],Compound
Not Active,Not Active,–,–,N=C(N)NCCCC1NC(=O)C[C@@H]2O[C@H](CNC(=O)C(CC(=O)O)NC(=O)C[C@@H]3O[C@H](CNC1=O)[C@@H](O)[C@H]3O)[C@@H](O)[C@H]2O (stereo not given in full)
Not Active,Not Active,–,–,CC(C)[C@@H]1NC(=O)CNC(=O)C[C@@H]2O[C@H](CNC(=O)[C@H](CCCN=C(N)N)NC(=O)[C@H](CC(=O)O)NC1=O)[C@@H](O)[C@H]2O (cyclo(DR[X1]GV))
–,–,1.49 µM,0.384 µM,N=C(N)NCCC[C@@H]1NC(=O)C[C@@H]2O[C@H](CNC(=O)[C@H](CC(=O)O)NC(=O)CNC1=O)[C@@H](O)[C@H]2O
–,–,98.1 µM,32.2 µM,CC(C)[C@@H]1NC(=O)[C@H](CC(=O)O)NC(=O)CNC(=O)[C@H](CCCN=C(N)N)NC(=O)C[C@@H]2O[C@H](CNC1=O)[C@@H](O)[C@H]2O (cyclo(RGDV[X1]))
–,–,597 µM,198 µM,N=C(N)NCCCC1NC(=O)C[C@@H]2O[C@H](CNC(=O)C[C@@H]3O[C@H](CNC(=O)C(CC(=O)O)NC(=O)CNC1=O)[C@@H](O)[C@H]3O)[C@@H](O)[C@H]2O (stereo not given in full)
